According to EP0323740A2, “Linear analogs of atrial natriuretic peptides” (CALIFORNIA BIOTECHNOLOGY, INC., priority 1987, dated 1989):

Target: T1, ANP-receptor (Bos taurus, UniProt P10730)
T1 construct: endogenous in cells; host or cells: cultured BASM cells
T1 sequence (P10730 42-537): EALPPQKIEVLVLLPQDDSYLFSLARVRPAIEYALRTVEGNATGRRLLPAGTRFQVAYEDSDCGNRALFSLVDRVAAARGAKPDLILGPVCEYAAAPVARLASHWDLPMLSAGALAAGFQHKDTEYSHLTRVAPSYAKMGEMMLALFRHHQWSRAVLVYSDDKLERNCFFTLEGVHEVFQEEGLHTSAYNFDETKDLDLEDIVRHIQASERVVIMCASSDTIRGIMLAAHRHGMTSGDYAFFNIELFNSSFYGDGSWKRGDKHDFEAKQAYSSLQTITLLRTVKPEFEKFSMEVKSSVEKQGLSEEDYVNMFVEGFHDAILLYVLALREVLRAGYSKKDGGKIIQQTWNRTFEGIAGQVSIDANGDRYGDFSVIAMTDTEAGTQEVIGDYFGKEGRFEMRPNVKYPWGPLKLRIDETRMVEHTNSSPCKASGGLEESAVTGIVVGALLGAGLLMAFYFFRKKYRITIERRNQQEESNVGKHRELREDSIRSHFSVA
Assay: competitive displacement receptor binding assay with (¹²⁵I)-rANP(126-150) on cultured cells
Parameters: species or system bovine
Conditions: concentration of unlabeled peptide displacing 50% of maximal binding of 0.5 nM (¹²⁵I)-rANP(126-150); BASM cells; read-out: Ki(app)
Excerpt: Analogous "competitive displacement" receptor binding assays are considered commonplace in the art for examining specific ligand-receptor interactions.
Assuming these ANP analogs act at one or more ANP receptor sites, then increased receptor affinity should reflect increased biological potency.

Ki | Compound
> 500 nM | CC[C@H](C)[C@H](NC(=O)[C@H](Cc1ccc(O)cc1)NC(=O)[C@@H](NC(=O)[C@H](CCCNC(=N)N)NC(=O)[C@@H](N)CC(=O)O)C(C)C)C(=O)N[C@@H](Cc1cnc[nH]1)C(=O)N1CCC[C@H]1C(=O)N[C@@H](Cc1ccccc1)C(=O)O [angiotensin II]
> 500 nM | parathyroid hormone
